Patent publication US8519003B2, “Phenoxyphenylamidines as fungicides” (priority 2007, dated 2013)

How the values were obtained:
[1] = logP determination (acidic / HCOOH and neutral); conditions: for chromatographic logP: acidic, HCOOH (formic acid)
Uromyces appendiculatus = experiment: Uromyces test (bean)/protective; assay type: in vivo; conditions: protective, active compound concentration 10 ppm, evaluation 10 days after inoculation
Description: Uromyces Test (Bean)/Protective [table] To produce a suitable preparation of active compound, 1 part by weight of N-ethyl-N-methyl-N′-[4-phenoxy-2,5-xylyl]formamidine (according to formula (1)) is mixed with the stated amounts of solvent and emulsifier, and the concentrate is diluted with water to the desired concentration. To test for protective activity, young plants are sprayed with the active compound preparation at the stated application rate. After the spray coating has dried on, the plants are inoculated with an aqueous spore suspension of the bean rust pathogen Uromyces appendiculatus and then remain in an incubation cabin at about 20° C. and 100% relative atmospheric humidity for 1 day. The plants are then placed in a greenhouse at about 21° C. and a relative atmospheric humidity of about 90%. Evaluation is carried out 10 days after the inoculation. 0% means an efficacy which corresponds to that of the control, whereas an efficacy of 100% means that no infection is observed.

[2] = tested on: Erysiphe graminis f. sp. hordei; experiment: Erysiphe test (barley)/protective; assay type: in vivo; conditions: protective, active compound concentration 500 ppm, evaluation 7 days after inoculation
Description: Erysiphe Test (Barley)/Protective [table] To produce a suitable preparation of active compound, 1 part by weight of N-ethyl-N-methyl-N′-[4-phenoxy-2,5-xylyl]formamidine (according to formula (1)) is mixed with the stated amounts of solvent and emulsifier, and the concentrate is diluted with water to the desired concentration. To test for protective activity, young cereal plants are sprayed with the active compound preparation at the stated application rate. 1 day after the treatment, the plants are inoculated with spores of Erysiphe graminis f. sp. hordei. The plants are then placed in a greenhouse at 70% relative atmospheric humidity and a temperature of 18° C. Evaluation is carried out 7 days after the inoculation. 0% means an efficacy which corresponds to that of the control, whereas an efficacy of 100% means that no infection is observed.

Sphaerotheca fuliginea = experiment: Sphaerotheca test (cucumber)/protective; assay type: in vivo; conditions: protective, active compound concentration 100 ppm, evaluation 7 days after inoculation
Description: (§1) Sphaerotheca Test (Cucumber)/Protective [table] To produce a suitable preparation of active compound, 1 part by weight of N-ethyl-N-methyl-N′-[4-phenoxy-2,5-xylyl]formamidine (according to formula (1)) is mixed with the stated amounts of solvent and emulsifier, and the concentrate is diluted with water to the desired concentration. To test for protective activity, young plants are sprayed with the active compound preparation at the stated application rate. After the spray coating has dried on, the plants are inoculated with an aqueous spore suspension of Sphaerotheca fuliginea. The plants are then placed in a greenhouse at about 23° C. and a relative atmospheric humidity of about 90%. Evaluation is carried out 7 days after the inoculation. 0% means an efficacy which corresponds to that of the control, whereas an efficacy of 100% means that no infection is observed.

Podosphaera leucotricha = experiment: Podosphaera test (apple)/protective; assay type: in vivo; conditions: protective, active compound concentration 100 ppm, evaluation 10 days after inoculation
Description: as §1, with “Podosphaera” for “Sphaerotheca”, “(Apple)/Protective” for “(Cucumber)/Protective”, “the apple mildew pathogen Podosphaera leucotricha.” for “Sphaerotheca fuliginea.”, “70%.” for “90%.”, “10” for “7”

| SMILES | logP [1] | chromatographic logP [1] | efficacy (Uromyces appendiculatus) | efficacy [2] | efficacy (Sphaerotheca fuliginea) | efficacy (Podosphaera leucotricha) |
| --- | --- | --- | --- | --- | --- | --- |
| CCN(C)C=Nc1cc(C)c(Oc2ccccc2)cc1C [(1), N-ethyl-N-methyl-N′-[4-phenoxy-2,5-xylyl]formamidine] | 4.67 | 1.87 | ≥ 70% | ≥ 70% | ≥ 70% | ≥ 70% |
| Cc1cc(Oc2ccccc2)c(C)cc1N [4-phenoxy-2,5-xylidine] | – | 1.92 | – | – | – | – |
